Converted amounts (≈) assume the structure as drawn.
Assays:
[1] = molecular target: T1, Neuropeptide Y receptor type 5 (Homo sapiens, UniProt Q15761); test: Displacement of [125I]PYY from human NPY5 receptor transfected in LM(tk-) cell membranes after 120 mins by solid scintillation counting
T1 sequence (Q15761 whole entry): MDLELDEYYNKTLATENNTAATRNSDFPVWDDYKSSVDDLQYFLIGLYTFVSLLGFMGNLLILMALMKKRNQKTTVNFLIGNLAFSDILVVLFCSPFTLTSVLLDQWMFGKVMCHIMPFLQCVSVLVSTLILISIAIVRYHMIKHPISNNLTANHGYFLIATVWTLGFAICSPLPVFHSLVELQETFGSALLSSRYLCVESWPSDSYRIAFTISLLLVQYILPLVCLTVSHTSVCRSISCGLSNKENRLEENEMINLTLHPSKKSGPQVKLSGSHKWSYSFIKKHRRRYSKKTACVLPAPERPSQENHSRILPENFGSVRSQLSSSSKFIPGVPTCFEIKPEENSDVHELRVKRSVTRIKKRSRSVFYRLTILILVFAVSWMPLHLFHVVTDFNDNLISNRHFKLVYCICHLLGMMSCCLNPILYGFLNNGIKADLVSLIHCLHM

[2] = Solubility of the compound at pH 7.4 by classic shake flask method; format: physicochemical; settings: buffer
[3] = Plasma concentration in femoral artery cannulated Sprague-Dawley rat at 10 mg/kg, po after 1 hr by LC/MS/MS analysis; format: ADME, organism-based; set-up: dose 10 mg/kg, route oral
[4] = Ratio of drug level in brain to plasma in femoral artery cannulated Sprague-Dawley rat at 10 mg/kg, po after 1 hr by LC/MS/MS analysis; format: ADME, organism-based; set-up: dose 10 mg/kg, route oral; settings: read-out: BPR
Liver microsome [5] = test: Intrinsic clearance in human pooled liver microsomes at 1 uM by LC/MS analysis; format: ADME
Liver microsome [6] = test: Intrinsic clearance in rat pooled liver microsomes at 1 uM by LC/MS analysis; format: ADME
[7] = Drug uptake in femoral artery cannulated Sprague-Dawley rat brain at 10 mg/kg, po after 1 hr by LC/MS/MS analysis; format: ADME, organism-based; set-up: dose 10 mg/kg, route oral; settings: read-out: Drug uptake
[8] = Oral bioavailability in Sprague-Dawley rat at 2 mg/kg by LC/MS analysis; format: ADME, organism-based; settings: in vivo
[9] = Clearance in Sprague-Dawley rat at 1 mg/kg, iv and 2 mg/kg, po by LC/MS analysis; format: ADME, organism-based; settings: in vivo
[10] = Half life in Sprague-Dawley rat at 1 mg/kg, iv and 2 mg/kg, po by LC/MS analysis; format: ADME, organism-based; settings: in vivo
[11] = Volume of distribution at steady state in Sprague-Dawley rat at 1 mg/kg, iv and 2 mg/kg, po by LC/MS analysis; format: ADME, organism-based; settings: in vivo, read-out: Vdss
Rattus norvegicus = test: AUC (0 to infinity) in Sprague-Dawley rat at 2 mg/kg, po by LC/MS analysis; format: ADME, organism-based, Plasma; set-up: time infinity, dose 2 mg/kg, route oral; settings: in vivo

Structure (SMILES)	Ki [1]	solubility thermodynamic [2]	concentration at 1 h [3]	Kp at 1 h [4]	CLH (Liver microsome [5])	CLH (Liver microsome [6])	concentration at 1 h [7]	bioavailability [8]	clearance [9]	half-life [10]	Vd [11]	AUC (Rattus norvegicus)
CN(c1ccc(-c2cc(F)cc(F)c2)cn1)C(=O)[C@H]1CC[C@@H](N2CCCC2=O)CC1	> 10000 nM	–	–	–	–	–	–	–	–	–	–	–
O=C1OCCN1[C@H]1CC[C@@H](C(=O)Nc2ccc(-c3cc(F)cc(F)c3)cn2)CC1	–	4 µg/mL (≈ 9.96 µM)	3000 nM	0.5	0.4 L/min	9.5 mL/min	1500 nM	83%	14.2 mL/min/kg	2.8 h	3.4 L/kg	2000 ng·h/mL
C[C@H]1CN([C@H]2CC[C@@H](C(=O)Nc3ccc(-c4cc(F)cc(F)c4)cn3)CC2)C(=O)O1	7 nM	–	–	–	1.1 L/min	15 mL/min	–	–	–	–	–	–
O=C1NCCCN1[C@H]1CC[C@@H](C(=O)Nc2ccc(-c3cc(F)cc(F)c3)cn2)CC1	–	1.3 µg/mL (≈ 3.14 µM)	–	–	1.1 L/min	18 mL/min	–	–	–	–	–	–
CN1CCCN([C@H]2CC[C@@H](C(=O)Nc3ccc(-c4cc(F)cc(F)c4)cn3)CC2)C1=O	–	5.4 µg/mL (≈ 12.6 µM)	–	–	1.1 L/min	19 mL/min	–	–	–	–	–	–
CCN1CCN([C@H]2CC[C@@H](C(=O)Nc3ccc(-c4cc(F)cc(F)c4)cn3)CC2)C1=O	10 nM	1.6 µg/mL (≈ 3.73 µM)	–	–	1.6 L/min	17 mL/min	–	–	–	–	–	–
CC(C)N1CCN([C@H]2CC[C@@H](C(=O)Nc3ccc(-c4cc(F)cc(F)c4)cn3)CC2)C1=O	41 nM	–	–	–	–	–	–	–	–	–	–	–
O=C1N(C2CC2)CCN1[C@H]1CC[C@@H](C(=O)Nc2ccc(-c3cc(F)cc(F)c3)cn2)CC1	9 nM	–	–	–	1 L/min	8.4 mL/min	–	–	–	–	–	–
O=C1CCCN1[C@H]1CC[C@@H](C(=O)Nc2ccc(-c3cc(F)cc(F)c3)cn2)CC1	8 nM	0.7 µg/mL (≈ 1.75 µM)	2800 nM	1	1 L/min	12 mL/min	2800 nM	110%	8.67 mL/min/kg	4.4 h	3.2 L/kg	4300 ng·h/mL

Results, then the compound that gave them:

Ki [1]	solubility thermodynamic [2]	concentration at 1 h [3]	Kp at 1 h [4]	CLH (Liver microsome [5])	CLH (Liver microsome [6])	concentration at 1 h [7]	bioavailability [8]	clearance [9]	half-life [10]	Vd [11]	AUC (Rattus norvegicus)	Structure (SMILES)
5 nM	38 µg/mL (≈ 94.9 µM)	2800 nM	0.14	0.7 L/min	31 mL/min	380 nM	–	–	–	–	–	O=C1CCCN1[C@H]1CC[C@@H](C(=O)Nc2ncc(-c3cc(F)cc(F)c3)cn2)CC1
6 nM	–	–	–	0.9 L/min	9.5 mL/min	–	–	–	–	–	–	O=C1CCCN1[C@H]1CC[C@@H](C(=O)Nc2cnc(-c3cc(F)cc(F)c3)cn2)CC1
2 nM	–	–	–	–	–	–	–	–	–	–	–	O=C1CCCCN1[C@H]1CC[C@@H](C(=O)Nc2ccc(-c3cc(F)cc(F)c3)cn2)CC1
3 nM	–	–	–	0.9 L/min	7 mL/min	–	–	–	–	–	–	C[C@@H]1CN([C@H]2CC[C@@H](C(=O)Nc3ccc(-c4cc(F)cc(F)c4)cn3)CC2)C(=O)O1
5 nM	4.5 µg/mL (≈ 11.2 µM)	6800 nM	0.2	1.7 L/min	37 mL/min	1400 nM	–	–	–	–	–	O=C1NCCN1[C@H]1CC[C@@H](C(=O)Nc2ccc(-c3cc(F)cc(F)c3)cn2)CC1
5 nM	1.1 µg/mL (≈ 2.65 µM)	5000 nM	0.6	0.8 L/min	8.8 mL/min	3100 nM	110%	9.5 mL/min/kg	3.5 h	2.8 L/kg	4100 ng·h/mL	CN1CCN([C@H]2CC[C@@H](C(=O)Nc3ccc(-c4cc(F)cc(F)c4)cn3)CC2)C1=O
4 nM	–	–	–	3.9 L/min	25 mL/min	–	–	–	–	–	–	CC(C)(C)C1CN([C@H]2CC[C@@H](C(=O)Nc3ccc(-c4cc(F)cc(F)c4)cn3)CC2)C(=O)O1 (mixture of isomers)
